Measured values as given in ChEMBL document CHEMBL4680207, “The discovery, design and synthesis of potent agonists of adenylyl cyclase type 2 by virtual screening combining biological evaluation” (Eur J Med Chem, 2020).
Calls of active or inactive are those of the source. The calls are words filed in the database; no cut-off is given here.

How the values were obtained:
Assay type in all cases: cell-based
Adenylate cyclase type 2 [1] = target: T1, Adenylate cyclase type 2 (Homo sapiens, UniProt Q08462); test: Agonist activity at recombinant human AC2 expressed in HEK293 cells assessed as increase in cAMP level measured after 30 mins by LANCE Ultra cAMP Detection kit method
T1 sequence (Q08462 whole entry): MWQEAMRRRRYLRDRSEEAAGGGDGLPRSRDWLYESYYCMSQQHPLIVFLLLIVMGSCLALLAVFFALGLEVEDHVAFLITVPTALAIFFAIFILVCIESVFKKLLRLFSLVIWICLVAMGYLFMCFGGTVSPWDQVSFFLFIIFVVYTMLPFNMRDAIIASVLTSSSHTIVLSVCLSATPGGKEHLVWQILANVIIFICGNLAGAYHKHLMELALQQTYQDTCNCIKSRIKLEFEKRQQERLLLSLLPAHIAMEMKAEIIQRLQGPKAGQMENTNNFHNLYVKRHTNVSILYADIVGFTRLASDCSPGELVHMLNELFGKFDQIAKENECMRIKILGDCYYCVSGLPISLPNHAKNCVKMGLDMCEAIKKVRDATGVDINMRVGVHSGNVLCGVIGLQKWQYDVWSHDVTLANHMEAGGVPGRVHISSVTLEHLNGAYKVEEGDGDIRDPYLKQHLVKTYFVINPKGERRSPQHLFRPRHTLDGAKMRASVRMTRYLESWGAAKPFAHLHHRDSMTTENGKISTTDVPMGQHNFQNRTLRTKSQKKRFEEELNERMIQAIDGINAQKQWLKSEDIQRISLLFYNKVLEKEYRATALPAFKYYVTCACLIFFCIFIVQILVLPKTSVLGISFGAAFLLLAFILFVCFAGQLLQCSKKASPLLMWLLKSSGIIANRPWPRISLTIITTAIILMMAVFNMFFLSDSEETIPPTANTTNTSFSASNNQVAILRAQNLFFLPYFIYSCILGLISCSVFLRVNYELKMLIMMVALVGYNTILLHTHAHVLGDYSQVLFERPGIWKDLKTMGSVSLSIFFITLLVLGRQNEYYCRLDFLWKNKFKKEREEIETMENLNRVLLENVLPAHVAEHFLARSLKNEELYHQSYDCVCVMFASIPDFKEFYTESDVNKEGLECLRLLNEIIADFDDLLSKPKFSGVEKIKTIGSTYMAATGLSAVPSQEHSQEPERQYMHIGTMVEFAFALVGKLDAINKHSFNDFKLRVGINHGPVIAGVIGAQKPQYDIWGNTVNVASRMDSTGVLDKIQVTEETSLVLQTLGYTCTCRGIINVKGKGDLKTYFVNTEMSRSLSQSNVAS

Adenylate cyclase type 2 [2] = target: T1, Adenylate cyclase type 2; test: Agonist activity at recombinant human AC2 expressed in HEK293 cells assessed as increase in cAMP level by measuring cAMP level at 50 uM measured after 30 mins by LANCE Ultra cAMP Detection kit method relative to control
Adenylate cyclase type 8 = Adenylate cyclase type 8 (Homo sapiens, UniProt P40145); test: Agonist activity at recombinant human AC8 expressed in HEK293 cells assessed as increase in cAMP level at 50 uM measured after 30 mins by LANCE Ultra cAMP Detection kit method; settings: hek293, 0.5 h
Adenylate cyclase type 8, sequence (P40145 whole entry): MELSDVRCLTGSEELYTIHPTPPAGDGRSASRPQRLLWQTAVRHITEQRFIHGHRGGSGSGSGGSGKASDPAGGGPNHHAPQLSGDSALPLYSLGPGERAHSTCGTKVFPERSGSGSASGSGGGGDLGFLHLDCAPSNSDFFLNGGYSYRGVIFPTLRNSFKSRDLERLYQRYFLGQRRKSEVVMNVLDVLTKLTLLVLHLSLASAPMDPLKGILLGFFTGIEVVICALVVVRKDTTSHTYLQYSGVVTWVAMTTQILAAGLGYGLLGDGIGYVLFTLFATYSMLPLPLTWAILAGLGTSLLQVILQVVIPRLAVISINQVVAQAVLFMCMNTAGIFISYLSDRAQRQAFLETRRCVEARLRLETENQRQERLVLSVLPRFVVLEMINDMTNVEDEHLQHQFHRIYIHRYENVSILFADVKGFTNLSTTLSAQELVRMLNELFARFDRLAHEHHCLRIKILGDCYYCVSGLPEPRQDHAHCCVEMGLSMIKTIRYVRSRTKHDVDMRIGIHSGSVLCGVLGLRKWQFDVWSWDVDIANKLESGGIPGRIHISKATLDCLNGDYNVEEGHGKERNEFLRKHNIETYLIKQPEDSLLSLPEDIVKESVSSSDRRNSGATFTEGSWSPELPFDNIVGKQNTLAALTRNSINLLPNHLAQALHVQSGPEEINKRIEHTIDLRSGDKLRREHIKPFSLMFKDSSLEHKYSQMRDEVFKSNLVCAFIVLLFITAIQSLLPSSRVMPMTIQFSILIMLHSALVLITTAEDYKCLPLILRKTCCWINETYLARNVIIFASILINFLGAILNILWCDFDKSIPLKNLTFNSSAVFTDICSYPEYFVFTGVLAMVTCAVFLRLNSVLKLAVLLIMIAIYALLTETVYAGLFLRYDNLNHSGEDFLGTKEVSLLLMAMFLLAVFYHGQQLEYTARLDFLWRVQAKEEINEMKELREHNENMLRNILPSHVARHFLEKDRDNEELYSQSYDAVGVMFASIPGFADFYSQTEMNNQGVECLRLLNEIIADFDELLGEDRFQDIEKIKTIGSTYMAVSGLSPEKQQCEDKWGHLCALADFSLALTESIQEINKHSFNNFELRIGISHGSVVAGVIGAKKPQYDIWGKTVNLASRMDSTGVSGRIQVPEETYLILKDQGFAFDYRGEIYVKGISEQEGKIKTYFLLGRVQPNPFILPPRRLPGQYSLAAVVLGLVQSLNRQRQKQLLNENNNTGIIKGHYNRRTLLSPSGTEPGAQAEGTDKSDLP

Adenylate cyclase type 2 [3] = target: T1, Adenylate cyclase type 2; test: Agonist activity at recombinant human AC2 expressed in HEK293 cells assessed as increase in cAMP level at 50 uM measured after 30 mins by LANCE Ultra cAMP Detection kit method; settings: filed as agonist

| Compound | EC50 (Adenylate cyclase type 2 [1]) [µM] | Activity (Adenylate cyclase type 2 [2]; filed as agonist) [%] | also measured |
| --- | --- | --- | --- |
| Cc1cc(C)cc(N2C(=O)[C@H]3[C@@H](c4ccccc4Cl)OC4(C(=O)c5ccccc5C4=O)[C@H]3C2=O)c1 | – | – | Activity (Adenylate cyclase type 2 [2]): 7.14% |
| Cc1ccccc1[C@H]1OC2(C(=O)c3ccccc3C2=O)[C@H]2C(=O)N(c3ccccc3Cl)C(=O)[C@@H]12 | – | – | Activity (Adenylate cyclase type 2 [2]): 30.7% |
| Cc1ccc([C@H]2OC3(C(=O)c4cccc(F)c4C3=O)[C@H]3C(=O)N(c4ccccc4Cl)C(=O)[C@@H]23)cc1 (mixture of isomers) | 0.345 | 59.1 | – |
| Cc1ccc([C@H]2OC3(C(=O)c4ccccc4C3=O)[C@H]3C(=O)N(c4ccc(C)cc4F)C(=O)[C@@H]23)cc1 | 0.77 | 107 | – |
| Cc1ccc([C@H]2OC3(C(=O)c4ccc(F)cc4C3=O)[C@H]3C(=O)N(c4ccccc4Cl)C(=O)[C@@H]23)cc1 (mixture of isomers) | 0.692 | 80.8 | – |
| COc1cccc([C@H]2OC3(C(=O)c4ccccc4C3=O)[C@H]3C(=O)N(c4ccc(C)cc4)C(=O)[C@@H]23)c1 | 1.6 | 97.8 | – |
| CCc1ccccc1N1C(=O)[C@H]2[C@@H](c3ccccc3Cl)OC3(C(=O)c4ccccc4C3=O)[C@H]2C1=O | – | – | Activity (Adenylate cyclase type 2 [2]): 20% |
| COc1cccc(N2C(=O)[C@H]3[C@@H](c4ccc(C)cc4)OC4(C(=O)c5ccccc5C4=O)[C@H]3C2=O)c1 | 0.96 | 84.6 | – |
| CCOC(=O)C1(Cc2ccc(Cl)cc2Cl)C(=O)Nc2ccccc21 (stereo not given) | – | – | Activity (Adenylate cyclase type 8): Active |
| O=C1[C@H]2[C@@H](C3CCCCC3)OC3(C(=O)c4ccccc4C3=O)[C@H]2C(=O)N1c1ccccc1Cl | – | 55.6 | – |
| Cc1ccc([C@H]2OC3(C(=O)c4ccccc4C3=O)[C@H]3C(=O)N(CC(C)C)C(=O)[C@@H]23)cc1 | – | 56.7 | – |
| Cc1ccc([C@H]2OC3(C(=O)c4cccc(Cl)c4C3=O)[C@H]3C(=O)N(c4ccccc4Cl)C(=O)[C@@H]23)cc1 (mixture of isomers) | 0.301 | 88.5 | – |
| Cc1ccc([C@H]2OC3(C(=O)c4ccccc4C3=O)[C@H]3C(=O)N(C4CCC4)C(=O)[C@@H]23)cc1 | – | – | Activity (Adenylate cyclase type 2 [2]): 0% |
| Cc1ccc([C@H]2OC3(C(=O)c4ccccc4C3=O)[C@H]3C(=O)N(C4CCCCC4)C(=O)[C@@H]23)cc1 | 1.29 | 69.5 | – |
| Cc1ccc([C@H]2OC3(C(=O)c4ccccc4C3=O)[C@H]3C(=O)N(c4ccc(F)c(Cl)c4)C(=O)[C@@H]23)cc1 | 0.52 | 103 | – |
| Cc1ccc([C@H]2OC3(C(=O)c4ccccc4C3=O)[C@H]3C(=O)N(c4ccccc4Cl)C(=O)[C@@H]23)cc1 | 0.17 | 93.6 | – |
| O=C1[C@H]2[C@@H](c3ccccc3)OC3(C(=O)c4ccccc4C3=O)[C@H]2C(=O)N1c1cccc(Cl)c1 | 8.1 | 103 | Activity (Adenylate cyclase type 2 [1]; filed as agonist): Dose-dependent effect; Activity (Adenylate cyclase type 2 [3]): Active |
| Cc1ccc([C@H]2OC3(C(=O)c4ccc(Cl)cc4C3=O)[C@H]3C(=O)N(c4ccccc4Cl)C(=O)[C@@H]23)cc1 (mixture of isomers) | 0.236 | 96.2 | – |
| O=C1[C@H]2[C@@H](CCc3ccccc3)OC3(C(=O)c4ccccc4C3=O)[C@H]2C(=O)N1c1ccccc1Cl | – | – | Activity (Adenylate cyclase type 2 [2]): 32% |
| CC(C)[C@H]1OC2(C(=O)c3ccccc3C2=O)[C@H]2C(=O)N(c3ccccc3Cl)C(=O)[C@@H]12 | – | – | Activity (Adenylate cyclase type 2 [2]): 27.2% |

| Compound | EC50 (Adenylate cyclase type 2 [1]) [µM] | Activity (Adenylate cyclase type 2 [2]; filed as agonist) [%] | also measured |
| --- | --- | --- | --- |
| CCc1ccc(N2C(=O)[C@H]3[C@@H](c4ccc(Cl)cc4)OC4(C(=O)c5ccccc5C4=O)[C@H]3C2=O)cc1 | 0.43 | 102 | – |
| Cc1ccc([C@H]2OC3(C(=O)c4ccccc4C3=O)[C@H]3C(=O)N(C4CC4)C(=O)[C@@H]23)cc1 | 3.37 | 70.8 | – |
| O=C1[C@H]2[C@@H](c3ccc4ccccc4c3)OC3(C(=O)c4ccccc4C3=O)[C@H]2C(=O)N1c1ccccc1Cl | – | – | Activity (Adenylate cyclase type 2 [2]): 0% |
| O=C1[C@H]2[C@@H](c3ccccc3)OC3(C(=O)c4ccccc4C3=O)[C@H]2C(=O)N1c1ccc(Cl)cc1 | 2.06 | 91.5 | – |
| Cc1cc(C)cc(N2C(=O)[C@H]3[C@@H](c4ccc(Cl)cc4)OC4(C(=O)c5ccccc5C4=O)[C@H]3C2=O)c1 | 0.31 | 96.9 | – |
| COc1ccc([C@H]2OC3(C(=O)c4ccccc4C3=O)[C@H]3C(=O)N(c4ccccc4F)C(=O)[C@@H]23)cc1 | – | – | Activity (Adenylate cyclase type 2 [2]): 0.25% |
| CCOc1ccc(N2C(=O)[C@H]3[C@@H](c4ccc(F)cc4)OC4(C(=O)c5ccccc5C4=O)[C@H]3C2=O)cc1 | 39.3 | 91 | – |
| CC(C)=C[C@H]1OC2(C(=O)c3ccccc3C2=O)[C@H]2C(=O)N(c3ccccc3Cl)C(=O)[C@@H]12 | – | 44.7 | – |
| Cc1ccc(N2C(=O)[C@H]3[C@@H](c4ccccc4)OC4(C(=O)c5ccccc5C4=O)[C@H]3C2=O)cc1Cl | – | 80.3 | – |
| Cc1ccc([C@H]2OC3(C(=O)c4ccccc4C3=O)[C@H]3C(=O)N(c4ccc(F)cc4)C(=O)[C@@H]23)cc1 | 1.64 | 99.5 | – |
| O=C1[C@H]2[C@@H](c3ccc(-c4ccccc4)cc3)OC3(C(=O)c4ccccc4C3=O)[C@H]2C(=O)N1c1ccccc1Cl | – | – | Activity (Adenylate cyclase type 2 [2]): 5.04% |
| Cc1cccc([C@H]2OC3(C(=O)c4ccccc4C3=O)[C@H]3C(=O)N(c4ccccc4Cl)C(=O)[C@@H]23)c1 | 6.81 | 57.4 | – |
| O=C1[C@H]2[C@@H](Cc3ccccc3)OC3(C(=O)c4ccccc4C3=O)[C@H]2C(=O)N1c1ccccc1Cl | – | – | Activity (Adenylate cyclase type 2 [2]): 0% |
| O=C1[C@H]2[C@@H](C3CC3)OC3(C(=O)c4ccccc4C3=O)[C@H]2C(=O)N1c1ccccc1Cl | – | – | Activity (Adenylate cyclase type 2 [2]): 0% |
| Cc1ccc([C@H]2OC3(C(=O)c4ccccc4C3=O)[C@H]3C(=O)N(c4ccc(C)c(Cl)c4)C(=O)[C@@H]23)cc1 | 0.75 | 96.4 | – |
| Cc1ccc([C@H]2OC3(C(=O)c4ccccc4C3=O)[C@H]3C(=O)N(C(C)(C)C)C(=O)[C@@H]23)cc1 | – | – | Activity (Adenylate cyclase type 2 [2]): 31% |
| Cc1ccc([C@H]2OC3(C(=O)c4ccc(C)cc4C3=O)[C@H]3C(=O)N(c4ccccc4Cl)C(=O)[C@@H]23)cc1 (mixture of isomers) | 0.3 | 98.1 | – |
| CC[C@H]1OC2(C(=O)c3ccccc3C2=O)[C@H]2C(=O)N(c3ccccc3Cl)C(=O)[C@@H]12 | – | – | Activity (Adenylate cyclase type 2 [2]): 0% |
| COc1ccc(N2C(=O)[C@H]3[C@@H](c4ccc(C)cc4)OC4(C(=O)c5ccccc5C4=O)[C@H]3C2=O)cc1 | 17.1 | 93.6 | – |

More lines, main results first:

| EC50 (Adenylate cyclase type 2 [1]) [µM] | Activity (Adenylate cyclase type 2 [2]; filed as agonist) [%] | Compound | also measured |
| --- | --- | --- | --- |
| 1.08 | 59.3 | Cc1ccc([C@H]2OC3(C(=O)c4cccc(C)c4C3=O)[C@H]3C(=O)N(c4ccccc4Cl)C(=O)[C@@H]23)cc1 (mixture of isomers) | – |
| 5.05 | 97.9 | Cc1ccc(N2C(=O)[C@H]3[C@@H](c4cccc(Cl)c4)OC4(C(=O)c5ccccc5C4=O)[C@H]3C2=O)cc1 | – |
| 5.96 | 103 | COc1cc(C)ccc1N1C(=O)[C@H]2[C@@H](c3cccc(C)c3)OC3(C(=O)c4ccccc4C3=O)[C@H]2C1=O | – |
| 11.6 | 76 | Cc1ccc([C@H]2OC3(C(=O)c4cccc(Br)c4C3=O)[C@H]3C(=O)N(c4ccccc4Cl)C(=O)[C@@H]23)cc1 (mixture of isomers) | – |
| 4.29 | 59.6 | CCC[C@H]1OC2(C(=O)c3ccccc3C2=O)[C@H]2C(=O)N(c3ccccc3Cl)C(=O)[C@@H]12 | – |
| 24.8 | 100 | CCOc1ccc([C@H]2OC3(C(=O)c4ccccc4C3=O)[C@H]3C(=O)N(c4ccc(C)cc4)C(=O)[C@@H]23)cc1 | – |
| – | 84.7 | Cc1cccc([C@H]2OC3(C(=O)c4ccccc4C3=O)[C@H]3C(=O)N(c4cccc(C)c4)C(=O)[C@@H]23)c1 | – |
| – | 44.5 | CC/C=C(\CCC)[C@H]1OC2(C(=O)c3ccccc3C2=O)[C@H]2C(=O)N(c3ccccc3Cl)C(=O)[C@@H]12 | – |
| 32.3 | 82.3 | CCOc1ccc(N2C(=O)[C@H]3[C@@H](c4ccccc4)OC4(C(=O)c5ccccc5C4=O)[C@H]3C2=O)cc1 | – |
| 1.2 | 103 | COc1ccc(OC)c(N2C(=O)[C@H]3[C@@H](c4ccc(C)cc4)OC4(C(=O)c5ccccc5C4=O)[C@H]3C2=O)c1 | – |
| 7.34 | 59 | Cc1ccc([C@H]2OC3(C(=O)c4ccccc4C3=O)[C@H]3C(=O)N(C(C)C)C(=O)[C@@H]23)cc1 | – |
| 3.53 | 99.9 | O=C1[C@H]2[C@@H](c3ccc(Cl)cc3)OC3(C(=O)c4ccccc4C3=O)[C@H]2C(=O)N1c1cccc(F)c1 | – |
| 0.53 | 100 | O=C1[C@H]2[C@@H](c3ccc(Cl)cc3)OC3(C(=O)c4ccccc4C3=O)[C@H]2C(=O)N1c1ccc(F)cc1 | – |
| 0.67 | 95.9 | CCc1ccc([C@H]2OC3(C(=O)c4ccccc4C3=O)[C@H]3C(=O)N(c4ccc(C)cc4)C(=O)[C@@H]23)cc1 | – |
| 10.8 | 97.7 | CCOc1ccc(N2C(=O)[C@H]3[C@@H](c4ccc(C)cc4)OC4(C(=O)c5ccccc5C4=O)[C@H]3C2=O)cc1 | – |
| 3.08 | 62 | Cc1ccc([C@H]2OC3(C(=O)c4ccccc4C3=O)[C@H]3C(=O)N(C)C(=O)[C@@H]23)cc1 | – |
| 3.12 | 101 | Cc1ccc(Cl)cc1N1C(=O)[C@H]2[C@@H](c3ccccc3)OC3(C(=O)c4ccccc4C3=O)[C@H]2C1=O | – |
| 3.44 | 64.9 | Cc1ccc([C@H]2OC3(C(=O)c4ccccc4C3=O)[C@H]3C(=O)N(C4CCCC4)C(=O)[C@@H]23)cc1 | – |
| 1.3 | 89.3 | CC(C)c1ccc([C@H]2OC3(C(=O)c4ccccc4C3=O)[C@H]3C(=O)N(c4ccc(F)cc4)C(=O)[C@@H]23)cc1 | – |
| 0.21 | 104 | Cc1ccc([C@H]2OC3(C(=O)c4ccccc4C3=O)[C@H]3C(=O)N(c4ccc(C)c(C)c4)C(=O)[C@@H]23)cc1 | – |
